The experiment relates to RAW 264.7 macrophages. Put plainly: NO production in RAW 264.7 macrophages stimulated with LPS or other microbial products (Griess reaction). The format is cell-based, mouse. On the procedure:
Effects of various microbial products on macrophages in vitro and anti-inflammatory effects by various peptides of HCII and TFPI. 3.5×10^5 cells were seeded in 96-well tissue culture plates (Nunc, 167008) in phenol red-free DMEM (Gibco) supplemented with 10% FBS and antibiotics. Following 6 hours of incubation to permit adherence, cells were stimulated with 10 ng/mL E. coli (0111:B4) LPS (Sigma), lipoteichoic acid, peptioglycan, or zymosan, with and without peptides at the indicated doses (se figure legends and figures). The levels of NO in culture supernatants were determined after 24 hours from stimulation using the Griess reaction. Briefly, nitrite, a stable product of NO degradation, was measured by mixing 50 μl of culture supernatants with the same volume of Griess reagent (Sigma, G4410) and reading absorbance at 550 nm after 15 min. Phenol-red free DMEM with FBS and antibiotics were used as a blank. A standard curve was prepared using 0-80 μM sodium nitrite solutions in ddH20.
LPS effects on macrophages in vitro—[…] cells were seeded in 96-well tissue culture plates (Nunc, 167008) in phenol red-free DMEM (Gibco) supplemented with 10% FBS containing 1% Anti-Anti (Invitrogen). Following 20 hours of incubation to permit adherence, cells were washed and stimulated with 10 ng/ml E. coli (0111:B4) or P. aeruginosa LPS (Sigma), with and without the peptides GGL27, GGL27(S), and DSE25 of various doses. The levels of NO in culture supernatants were determined after 24 hours from stimulation using the Griess reaction (27). Briefly, nitrite, a stable product of NO degradation, was measured by mixing 50 μl of culture supernatants with the same volume of Griess reagent (Sigma, G4410) and reading absorbance at 550 nm after 15 min. Phenol-red free DMEM with FBS and antibiotics were used as a blank. A standard curve was prepared using 0-80 μM sodium nitrite solutions in ddH20.
(Griess reagent forms a coloured azo dye with nitrite.)

“Also recorded” adds a separate entry of the source.

As for “GGLIKTKRKRKKQRVKIAYEEIFVKNM [GGL27, C-terminal peptide of TFPI, plasmin-generated]”, the “anti-endotoxic effects in vitro” value is “anti-endotoxic effects”. The “LPS-mediated NO release” value (LPS from E. coli or P. aeruginosa, peptide at indicated concentrations (FIG. 41C)) is “inhibits NO production; also recorded: inhibited LPS-mediated NO-release”.

The values above are taken from patent publication US20120189673A1, “POLYPEPTIDES AND USES THEREOF” (priority 2009, published 2012).
